The source of these data is PMC5877410 (Journal of medicinal chemistry, 2017).

Data set [1] deals with NAP1 spores. Kind of data set: Phase-contrast microscope spore count assay. The class given is cell-based, Clostridium difficile.
In data set [2] the test system is Caco-2 monolayers. The note with it: cited from earlier work.
In data set [3] the test system is ATCC strain 630. The note with it: murine infection model, strain ATCC 630; cited from earlier work.
Data set [4] concerns NAP1 C. difficile spores. As to the kind of experiment: Optical density. The data set is classed as cell-based, Clostridium difficile.
The subject of data set [5] is Caco-2 cell monolayer.
Data set [6] has as its system Caco-2 cell monolayer. As to the kind of experiment: Caco-2 cell monolayer bidirectional permeability assay. The note with it: 10 μM.
Data set [7] addresses C. difficile spore germination. The class given is cell-based, Clostridium difficile. The note with it: inhibitor evaluated at 0.2 mM, varying TCA; average of three experiments ± SEM.
Setting [8] is: 10 μM compound, 2000 μM TCA, after 20 min, mean ± SD, N = 3.

Where “and” joins values, the source holds several entries; their conditions need not be identical. Equal entries are not always repeated. Where two headings read alike, the source gives them in different places.

As for `COC(=O)CC[C@@H](C)[C@H]1CC[C@H]2[C@@H]3[C@H](O)C[C@@H]4C[C@H](O)CC[C@]4(C)[C@H]3CC[C@]12C` [2a, methyl (R)-4-((3R,5S,7R,8R,9S,10S,13R,14S,17R)-3,7-dihydroxy-10,13-dimethylhexadecahydro-1H-cyclopenta[a]phenanthren-17-yl)pentanoate, reference compound], in data set [1] (setting [8]), the “Percent Spore Germination t20” value was found to be 71 ± 1%.
For the compound `CO[C@@H]1CC[C@@]2(C)[C@@H](C1)C[C@H](OC)[C@@H]1[C@@H]2CC[C@]2(C)[C@@H]([C@H](C)CCC(=O)O)CC[C@@H]12` [6b, (R)-4-((3R,5S,7S,8R,9S,10S,13R,14S,17R)-3,7-Dimethoxy-10,13-dimethylhexadecahydro-1H-cyclopenta[a]-phenanthren-17-yl)pentanoic Acid], the “Percent Spore Germination t20” value in data set [1] (setting [8]) was determined as 71 ± 2%.
On to `CO[C@@H]1CC[C@@]2(C)[C@@H](C1)C[C@H](OS(=O)(=O)[O-])[C@@H]1[C@@H]2CC[C@]2(C)[C@@H]([C@H](C)CCC(=O)N3CCCC3)CC[C@@H]12.[Na+]` [21b, Sodium (3R,5S,7S,8R,9S,10S,13R,14S,17R)-3-Methoxy-10,13-dimethyl-17-((R)-5-oxo-5-(pyrrolidin-1-yl)pentan-2-yl)-hexadecahydro-1H-cyclopenta[a]phenanthren-7-yl Sulfate], for which, in data set [1] (setting [8]), the “Percent Spore Germination t20” value is 30 ± 6%. Moreover, in data set [1] (10 μM compound, 2000 μM TCA, time 0, mean ± SD, N = 3), the “Percent Spore Germination t0” value came out at 18 ± 2%. In data set [1] (50 μM compound, 2000 μM TCA (Table S1)), the “Inhibition of spore germination at 50 μM” value was “complete inhibition of spore germination”.
Turning to `C[C@H](CCC(=O)NCCS(=O)(=O)O)[C@H]1CC[C@H]2[C@@H]3[C@H](O)C[C@@H]4C[C@H](O)CC[C@]4(C)[C@H]3C[C@H](O)[C@]12C` [TCA, taurocholic acid], the transport ratio entry in data set [2] was “greater than 10”.
Turning to `C[C@H](CCC(=O)Nc1cccc(S(=O)(=O)O)c1)[C@H]1CC[C@H]2[C@@H]3[C@H](O)C[C@@H]4C[C@H](O)CC[C@]4(C)[C@H]3C[C@H](O)[C@]12C` [compound 3, reference compound], the “Effect on CDI symptoms” value in data set [3] was “eradicated CDI symptoms”. Besides, the “Percent Spore Germination t20” value in data set [1] (setting [8]) was 74 ± 2%.
For “sodium 5-((R)-3-((3R,5R,7R,8R,9S,10S,13R,14S,17R)-7-hydroxy-3-methoxy-10,13-dimethyl-hexadecahydro-1H-cyclopenta[a]phenanthren-17-yl)butyl)-tetrazol-1-ide [37a]”, in data set [4], the “Concentration Required for Complete Inhibition” value amounted to 5 µM. In addition, in data set [5], the “mean permeability A–B” value is on record as 10.7 10^−6 cm/s and the “mean permeability B–A” value is on record as 1.9 10^−6 cm/s. Besides, in data set [6], the “fold greater permeability in the A–B direction than C7-sulfated analogue 38a” value is given as “over 25 times”. Also, affinity in data set [7] was put at a Ki of 17.9 ± 4.6 µM. In data set [1], the “Percent Spore Germination t0” value was 20% and 16 ± 4%; the “Percent Spore Germination t20” value is reported as 25%.
Regarding “sodium 5-((R)-3-((3R,5S,7R,8R,9S,10S,13R,14S,17R)-3,7-dihydroxy-10,13-dimethylhexadecahydro-1H-cyclopenta[a]phenanthren-17-yl)butyl)tetrazol-1-ide [35a]”, the “Concentration Required for Complete Inhibition” value in data set [4] is 10 µM. Moreover, in data set [1], the “Percent Spore Germination Relative to control” value is 12% and 12 ± 6%; the “Percent Spore Germination t0” value is reported as 15 ± 6%; the “Percent Spore Germination t20” value is 22 ± 6%.
With “sodium 5-((R)-3-((3R,5S,7R,8R,9S,10S,13R,14S,17R)-3-methoxy-10,13-dimethyl-7-(sulfonatooxy)hexadecahydro-1H-cyclopenta[a]phenanthren-17-yl)-butyl)tetrazol-1-ide [38a]”, in data set [5], the “mean permeability A–B” value is recorded as 0.4 10^−6 cm/s and the “mean permeability B–A” value is on record as 0.4 10^−6 cm/s. Further, in data set [1], the “Percent Spore Germination t0” value is 20 ± 11% and the “Percent Spore Germination t20” value amounted to 48 ± 11%.
